From patent publication US6362216B1, “Compounds which inhibit tryptase activity” (Array Biopharma Inc., priority 1998, dated 2002)

Experiments:
Type in all cases: biochemical
Human lung tryptase = target: T1, Human lung tryptase; experiment: Human lung tryptase inhibition, chromogenic GPR-pNA substrate
T1 construct: Human lung tryptase purchased from Cortex Biochem (San Leandro, Calif.) was purified further on a Superdex 200 gel-filtration column
Protocol: (§1) Protease inhibition was assayed according to published procedures with minor modifications using various proteases and specific chromogenic peptide p-nitroanilide substrates. Assays were performed in Costar ultra-low cluster 96-well microtiter plate (Costar Corning Corp., Cambridge Mass.). Each protease was incubated with various concentrations of the test compound for 15 min. at 37° C. or as otherwise indicated, in specific assay buffer, and the residual activity was then measured by addition of the substrate. p-Nitroaniline produced by the proteolysis was determined by measuring the change in absorbance at 405 nm on a SpectraMAX 340 plate reader (Molecular devices, Sunnyvale, Calif.).
(§2) 1. The inhibition constant, Ki is calculated from individual data points using the equation for a tight-binding inhibitor (See Beith, “Proteinase Inhibitors-Proceedings of 2nd Int. Res. Conference”, Fritz, et al. eds., New York, p.4463-4469 (1974)):
vi/vo=[((Ki′+[I]+[E]o)^2−4[I]o[E]o)^½(Ki′+[I]o−[E]o)]/2[E]o
where Ki′ is apparent inhibition constant; vi and vo are the inhibited and uninhibited rates, respectively; [I]o and [E]o are the total concentrations of inhibitor and enzyme, respectively.
[note: [E]o is determined by active site titration of enzyme]
(§3) The Ki values are obtained by correcting Ki ′ values for the effect of substrate concentration according to: [formula]
(§4) 2. Other inhibition data (Ki>>[E]o), the Ki is calculated from using the equations for a competitive inhibitor: [formula]
IC50 is determined by fitting the individual inhibition data point to Sigmoid or four-parameter curve-fit equations.
Human lung tryptase purchased from Cortex Biochem (San Leandro, Calif.) was purified further on a Superdex 200 gel-filtration column. The active-site concentration of the enzyme was determined by spectrophotometric titration with 4-nitrophenyl 4′-guanidinobenzoate according to Schwartz, et al., J. Immunol., 114, 2304-2311 (1990). Tryptase activity was measured according to the procedures of Schwartz, et al., J. Biol. Chem., 261, 7372-7379 (1986) (See also, Schwartz, L. B., Methods In Enzymology, 244, 88 (1994)) with minor modifications, using Tosyl-Gly-Pro-Arg-p-nitroanilide (“GPR-pNA”, Sigma Chemical Co., St. Louis, Mo., T-1637) as a chromogenic substrate. The reaction was performed in 50 mM Tris-HCl, pH 8.0, containing 150 mM NaCl and 0.02% Triton X-100 at 37° C. in Costar ultra-low cluster 96-well microtiter plates (Costar Corning Corp., Cambridge, Mass.). The amount of pNA produced by tryptase was determined by measuring the change in absorbance at 405 nm on a SpectraMAX 340 plate reader (Molecular devices, Sunnyvale, Calif.). The Km for the substrate was determined by Lineweaver-Burk analysis from initial velocities of substrate hydrolysis. The inhibition assay was carried out in a total volume of 200 μL. Tryptase (30 μL-final concentration 1 nM) was incubated with various concentrations of sample compound (50 μL) to be tested in the above assay buffer for 5 min. The reaction was started by the addition of substrate GPR-pNA (40 μL-final concentration 320 μM), and the residual activity was measured after 15 min. of incubation. The inhibition constant, Ki, was determined by fitting the inhibition data to a two-site competitive binding equation using data analysis program GraphPad PRISM (GraphPad Software, Inc., San Diego, Calif.).
(§5) The inhibition constant (Ki) of the test compounds against each proteolytic enzyme was determined according to Zitnik et al., Biochem. Biophys. Res. Commun. 232, 687-697 (1997)).

[1] = target: T2, Bovine pancreatic Trypsin (TPCK-treated) (Bos taurus, UniProt P00760); experiment: Bovine pancreatic trypsin inhibition, N-α-Benzoyl-L-Arg-pNA substrate; details: the 5th table, unit inferred
T2 construct: from tissue; host or cells: bovine pancreas
T2 sequence (P00760 24-246): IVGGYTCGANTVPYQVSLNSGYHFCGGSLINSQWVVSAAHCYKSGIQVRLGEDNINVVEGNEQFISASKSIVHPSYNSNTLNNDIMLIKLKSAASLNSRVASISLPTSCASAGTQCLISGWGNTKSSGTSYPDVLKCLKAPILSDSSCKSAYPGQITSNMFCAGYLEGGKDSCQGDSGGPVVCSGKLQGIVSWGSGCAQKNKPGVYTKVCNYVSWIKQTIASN
Protocol: as §1, §2, §3, §4
C. Bovine Pancreatic Trypsin
Bovine pancreatic Trypsin (TPCK-treated) activity was determined by using N-α-Benzoyl-L-Arg-pNA in 50 mM Tris-HCl, pH 8.2, 20 mM CaCl2 (See Somorin, et al., J. Biochem. 85, 157-162 (1979)).
as §5

Human plasma thrombin = target: T3, Human plasma thrombin (Homo sapiens, UniProt P00734); experiment: Human plasma thrombin inhibition, H-D-Phe-Pip-Arg-pNA substrate; details: the 5th table, unit inferred
T3 construct: from tissue; host or cells: human plasma
Protocol: as §1, §2, §3, §4
Human plasma thrombin activity was determined by using H-D-Phe-Pip-Arg-pNA in 50 mM Tris-HCl, pH 8.3, 100 mM NaCl, 1% BSA (See Lottenberg, et al., Meth. Enzymol. 80, 341-361 (1981)).
as §5

Human plasma plasmin = target: T4, Human plasma plasmin (Homo sapiens, UniProt P00747); experiment: Human plasma plasmin inhibition, Tosyl-Gly-Pro-Lys-pNA substrate; details: 100 mM Tris-HCl, pH 7.4, 100 mM NaCl, 0.05% Triton X-100
T4 construct: from tissue; host or cells: human plasma
Protocol: as §1
1. The inhibition constant, Ki is calculated from individual data points using the equation for a tight-binding inhibitor (See Beith, “Proteinase Inhibitors-Proceedings of 2nd Int. Res. Conference”, Fritz, et al. eds., New York, p.4463-4469 (1974)): […]
as §4
Human plasma plasmin activity was determined by using Tosyl-Gly-Pro-Lys-pNA in 100 mM Tris-HCl, pH 7.4, 100 mM NaCl, 0.05% Triton X-100 (See Lottenberg, et al., Meth. Enzymol. 80, 341-361 (1981)).
The inhibition constant (Ki) of the test compounds against each proteolytic enzyme was determined according to Zitnik et al., Biochem. Biophys. […]

[2] = target: T5, Human Neutrophil Cathepsin G (Homo sapiens, UniProt P08311); experiment: Human neutrophil cathepsin G inhibition, N-Suc-Ala-Ala-Pro-Phe-pNA substrate; details: 625 mM Tris-HCl, pH 7.5, 2.5 mM MgCl2, 0.125% Brij 35
T5 construct: from tissue; host or cells: human neutrophils
T5 sequence (P08311 21-244): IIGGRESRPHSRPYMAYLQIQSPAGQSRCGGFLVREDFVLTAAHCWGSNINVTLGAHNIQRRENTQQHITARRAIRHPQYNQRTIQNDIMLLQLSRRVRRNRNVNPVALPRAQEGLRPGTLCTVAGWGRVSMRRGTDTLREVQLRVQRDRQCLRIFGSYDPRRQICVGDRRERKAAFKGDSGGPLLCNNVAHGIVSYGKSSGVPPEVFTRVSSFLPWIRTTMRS
Protocol: as §1, §2, §3
2. Other inhibition data (Ki>>[E]o), the Ki is calculated from using the equations for a competitive inhibitor: [formula] […]
Human Neutrophil Cathepsin G activity was determined by using N-Suc-Ala-Ala-Pro-Phe-pNA in 625 mM Tris-HCl, pH 7.5, 2.5 mM MgCl2, 0.125% Brij 35 (See Groutas et al., Arch. Biochem. Biophys. 294, 144-146 (1992)). […]

T4 sequence (P00747 581-810 limits assumed): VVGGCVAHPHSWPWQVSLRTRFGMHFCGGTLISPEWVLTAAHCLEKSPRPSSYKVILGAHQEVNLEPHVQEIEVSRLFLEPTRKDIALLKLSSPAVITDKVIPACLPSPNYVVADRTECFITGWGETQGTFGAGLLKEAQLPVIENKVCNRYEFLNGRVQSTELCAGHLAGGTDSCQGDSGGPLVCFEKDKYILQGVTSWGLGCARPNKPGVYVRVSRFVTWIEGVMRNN
T4 sequence (P00747 97-580 partner limits assumed): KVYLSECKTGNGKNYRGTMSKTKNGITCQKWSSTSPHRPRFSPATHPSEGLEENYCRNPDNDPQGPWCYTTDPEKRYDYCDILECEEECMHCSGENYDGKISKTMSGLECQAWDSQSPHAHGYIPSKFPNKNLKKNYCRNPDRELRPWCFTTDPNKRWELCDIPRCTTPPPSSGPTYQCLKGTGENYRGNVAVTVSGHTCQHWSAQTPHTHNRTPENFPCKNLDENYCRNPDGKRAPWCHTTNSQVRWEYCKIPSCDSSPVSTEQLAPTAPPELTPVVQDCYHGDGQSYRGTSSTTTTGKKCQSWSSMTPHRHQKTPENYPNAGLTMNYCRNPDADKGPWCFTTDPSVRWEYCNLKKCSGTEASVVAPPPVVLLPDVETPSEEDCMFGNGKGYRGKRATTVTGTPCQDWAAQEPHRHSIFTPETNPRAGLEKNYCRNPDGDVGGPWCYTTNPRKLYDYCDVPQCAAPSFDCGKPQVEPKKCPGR

`Cc1cc2cc(CNC(=O)Cc3cc4cc(C(=N)N)ccc4s3)ccc2[nH]1` [drawing 17 Benzthiophene 5-carboxamidine n=1] was tested, and the Ki (Human lung tryptase; the 5th table, unit inferred) was 41 nM, the Ki (Human lung tryptase; tryptase 1 nM, GPR-pNA 320 μM, 50 mM Tris-HCl pH 8.0, 37° C.) was 41 nM and the Ki [1] was 2400 nM. The Ki (Human plasma thrombin) was 25800 nM, the Ki (Human plasma plasmin) was 2700 nM and the Ki [2] was greater than 100000 nM.
